Test results from ChEMBL document CHEMBL4420076, “Amylin and calcitonin receptor agonist” (2017).
pEC50, pIC50: −log10 of the molar value. Numbered stars: 1 amine (or outer) side, 2 acyl side, 3 side chain; on linkers, the order of the positions; unused ones are H or OH. Peptide text beside a SMILES is read from it. * marks the point of attachment. C20 diacid = O=C(O)CCCCCCCCCCCCCCCCCCC(=O)*; γGlu = O=C(O)[C@H](CCC(=O)[*:2])N[*:1]

Experiments:
[1] = Solubility in 100 mM bistrispropane buffer at pH 7.5 incubated for 18 hrs by UPLC analysis; assay type: physicochemical
Rattus norvegicus [2] = experiment: Reduction in food intake in Sprague-Dawley rat at 3 nmol/kg measured 0 to 24 hrs post dose relative to control; assay type: functional; parameters: scale not given: the % may be the effect or the level left
Calcitonin receptor [3] = molecular target: T1, Calcitonin receptor (Homo sapiens, UniProt P30988); experiment: Agonist activity at human calcitonin receptor expressed in BHK570 cells assessed as increase in intracellular cAMP concentration incubated for 3 hrs in presence of 10% FBS by CRE luciferase reporter gene assay; assay type: functional, cell-based
T1 sequence (P30988 whole entry): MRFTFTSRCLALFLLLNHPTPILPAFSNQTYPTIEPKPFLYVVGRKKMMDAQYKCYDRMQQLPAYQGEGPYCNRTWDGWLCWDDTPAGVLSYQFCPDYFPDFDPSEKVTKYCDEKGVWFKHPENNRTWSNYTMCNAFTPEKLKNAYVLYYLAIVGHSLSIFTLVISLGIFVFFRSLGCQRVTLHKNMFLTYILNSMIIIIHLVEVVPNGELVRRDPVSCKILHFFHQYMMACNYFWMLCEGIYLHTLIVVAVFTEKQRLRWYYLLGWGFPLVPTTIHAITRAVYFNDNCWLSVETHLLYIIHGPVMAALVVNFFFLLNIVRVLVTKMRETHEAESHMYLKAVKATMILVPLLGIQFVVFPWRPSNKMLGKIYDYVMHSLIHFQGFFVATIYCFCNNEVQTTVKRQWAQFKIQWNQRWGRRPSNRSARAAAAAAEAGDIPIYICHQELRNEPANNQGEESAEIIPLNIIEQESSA

Rattus norvegicus [4] = experiment: Reduction in food intake in Sprague-Dawley rat at 3 nmol/kg measured 24 to 48 hrs post dose relative to control; assay type: functional; parameters: scale not given: the % may be the effect or the level left
[5] = molecular target: T2, Amylin receptor AMY3; CALCR/RAMP3 (Rattus norvegicus, UniProt P32214+Q9JJ73); experiment: Displacement of [125I]-labeled rat amylin from rat amylin receptor expressed in BHK tkts13 cell membranes co-expressing RAMP3 incubated for 120 mins by scintillation proximity assay
T2 sequence (P32214 whole entry): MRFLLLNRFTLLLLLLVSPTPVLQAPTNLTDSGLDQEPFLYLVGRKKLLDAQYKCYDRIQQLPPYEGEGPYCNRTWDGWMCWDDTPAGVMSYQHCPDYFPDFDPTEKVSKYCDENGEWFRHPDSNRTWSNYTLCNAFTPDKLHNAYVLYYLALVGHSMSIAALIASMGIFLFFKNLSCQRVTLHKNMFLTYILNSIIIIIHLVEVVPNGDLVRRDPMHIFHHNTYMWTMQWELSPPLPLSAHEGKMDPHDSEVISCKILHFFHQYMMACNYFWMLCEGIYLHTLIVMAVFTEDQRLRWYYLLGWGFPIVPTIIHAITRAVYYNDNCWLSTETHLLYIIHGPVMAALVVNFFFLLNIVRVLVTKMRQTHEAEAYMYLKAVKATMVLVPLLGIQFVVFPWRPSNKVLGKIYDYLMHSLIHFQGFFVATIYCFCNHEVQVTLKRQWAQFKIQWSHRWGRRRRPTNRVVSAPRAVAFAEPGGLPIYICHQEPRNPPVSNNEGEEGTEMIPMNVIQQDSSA
T2 sequence (Q9JJ73 whole entry): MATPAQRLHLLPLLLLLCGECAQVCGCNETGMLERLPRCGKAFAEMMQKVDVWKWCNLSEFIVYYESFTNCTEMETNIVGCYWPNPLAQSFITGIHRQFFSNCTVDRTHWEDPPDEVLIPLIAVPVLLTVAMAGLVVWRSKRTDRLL

[6] = molecular target: T3, Amylin receptor AMY3; CALCR/RAMP3 (Homo sapiens, UniProt O60896+P30988); experiment: Agonist activity at human amylin receptor expressed in BHK570 cells co-expressing RAMP3 assessed as increase in intracellular cAMP concentration incubated for 3 hrs in absence of albumin by CRE luciferase reporter gene assay; assay type: functional, cell-based
T3 sequence (P30988 whole entry): T1 sequence (P30988 whole entry)
T3 sequence (O60896 whole entry): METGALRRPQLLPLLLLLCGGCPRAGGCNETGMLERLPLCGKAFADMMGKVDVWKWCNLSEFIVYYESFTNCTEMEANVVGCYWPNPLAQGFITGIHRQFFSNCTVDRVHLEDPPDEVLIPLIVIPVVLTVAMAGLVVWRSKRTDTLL

[7] = Solubility in 100 mM glycylglycine buffer at pH 3.0 incubated for 18 hrs by UPLC analysis; assay type: physicochemical
[8] = molecular target: T3, Amylin receptor AMY3; CALCR/RAMP3; experiment: Displacement of [125I]-labeled rat amylin from human amylin receptor expressed in BHK570 cell membranes co-expressing RAMP3 incubated for 120 mins by scintillation proximity assay
Calcitonin receptor [9] = molecular target: T1, Calcitonin receptor; experiment: Agonist activity at human calcitonin receptor expressed in BHK570 cells assessed as increase in intracellular cAMP concentration incubated for 3 hrs in absence of albumin by CRE luciferase reporter gene assay; assay type: functional, cell-based
[10] = Solubility in 100 mM bistrispropane buffer at pH 6.5 incubated for 18 hrs by UPLC analysis; assay type: physicochemical
[11] = Stability in pH 7.5 buffer assessed as compound recovery at 1 uM by Thioflavin T based fluorescence assay; assay type: physicochemical; conditions: read-out: Drug recovery
[12] = Solubility in 100 mM bistrispropane buffer at pH 8.0 incubated for 18 hrs by UPLC analysis; assay type: physicochemical
[13] = Stability in pH 7.5 buffer assessed as lag time for fibril formation at 1 uM by Thioflavin T based fluorescence assay; assay type: physicochemical; conditions: pH 7.5, 1 µM
Calcitonin receptor [14] = molecular target: T1, Calcitonin receptor; experiment: Displacement of [125I]-labeled human calcitonin from human calcitonin receptor expressed in BHK tkts13 cell membranes incubated for 1 hr by scintillation proximity assay
[15] = Solubility in 100 mM glycylglycine buffer at pH 4.0 incubated for 18 hrs by UPLC analysis; assay type: physicochemical
[16] = Solubility in 100 mM bistrispropane buffer at pH 7.0 incubated for 18 hrs by UPLC analysis; assay type: physicochemical
[17] = Solubility in 100 mM bistrispropane buffer at pH 6.0 incubated for 18 hrs by UPLC analysis; assay type: physicochemical
Calcitonin receptor [18] = molecular target: T1, Calcitonin receptor; experiment: Displacement of [125I]-labeled human calcitonin from human calcitonin receptor expressed in BHK tkts13 whole cells incubated for 60 mins by scintillation proximity assay; assay type: cell-based
[19] = molecular target: T3, Amylin receptor AMY3; CALCR/RAMP3; experiment: Displacement of [125I]-labeled rat amylin from human amylin receptor expressed in BHK tkts13 whole cells co-expressing RAMP3 incubated for 60 mins by scintillation proximity assay; assay type: cell-based

Row | solubility at 18 h [1] | pEC50 (Calcitonin receptor [3]) | pIC50 [5] | pEC50 [6] | solubility at 18 h [7] | pIC50 [8] | pEC50 (Calcitonin receptor [9]) | solubility at 18 h [10] | remaining at 1 µM [11] | solubility at 18 h [12] | Time [13] | pIC50 (Calcitonin receptor [14]) | solubility at 18 h [15] | solubility at 18 h [16] | solubility at 18 h [17] | pIC50 (Calcitonin receptor [18]) | pIC50 [19] | Compound | Activity (Rattus norvegicus [2]) | Activity (Rattus norvegicus [4])
1 | ≥ 200 µM | 9.97 | 10.11 | 10.43 | ≥ 200 µM | 9.88 | 10.60 | ≥ 200 µM | 100% | ≥ 200 µM | > 45 h | 10.29 | ≥ 200 µM | ≥ 200 µM | ≥ 200 µM |  |  | CC(C)C[C@H](NC(=O)CNC(=O)[C@H](CO)NC(=O)[C@H](C)NC(=O)CC[C@H](NC(=O)CCCCCCCCCCCCCCCCCCC(=O)O)C(=O)O)C(=O)N[C@@H](CO)C(=O)N[C@H](C(=O)N[C@@H](C)C(=O)N[C@@H](C)C(=O)N[C@@H](CC(C)C)C(=O)NCC(=O)N[C@@H](CCCNC(=N)N)C(=O)N[C@@H](CC(C)C)C(=O)N[C@@H](CO)C(=O)N[C@@H](CCC(N)=O)C(=O)N[C@@H](CCC(=O)O)C(=O)N[C@@H](CC(C)C)C(=O)N[C@@H](Cc1cnc[nH]1)C(=O)N[C@@H](CCC(=O)O)C(=O)N[C@@H](CC(C)C)C(=O)N[C@@H](CCC(N)=O)C(=O)N[C@H](C(=O)N[C@@H](Cc1ccc(O)cc1)C(=O)N1CCC[C@H]1C(=O)N[C@@H](CCCNC(=N)N)C(=O)N[C@H](C(=O)N[C@@H](CCC(=O)O)C(=O)N[C@H](C(=O)NCC(=O)N[C@@H](CO)C(=O)N[C@@H](CCC(N)=O)C(=O)N[C@H](C(=O)N[C@@H](Cc1ccc(O)cc1)C(N)=O)[C@@H](C)O)[C@@H](C)O)[C@@H](C)O)[C@@H](C)O)[C@@H](C)O ({C20 diacid-γGlu}-ASGLSTAALGRLSQELHELQTYPRTETGSQTY-NH2) | 40% | 42%
2 |  |  |  | 10.18 |  |  | 10.25 |  |  |  |  |  |  |  |  | 9.10 | 9.47 | CC(C)C[C@H](NC(=O)[C@H](CCCNC(=N)N)NC(=O)CNC(=O)[C@H](CC(C)C)NC(=O)[C@@H](NC(=O)[C@H](C)NC(=O)[C@@H](NC(=O)[C@H](CO)NC(=O)[C@H](CC(C)C)NC(=O)[C@H](CCC(N)=O)NC(=O)[C@H](CO)NC(=O)[C@H](C)NC(=O)[C@H](CCC(=O)O)NC(=O)CC[C@H](NC(=O)CCCCCCCCCCCCCCCCCCC(=O)O)C(=O)O)[C@@H](C)O)C(C)C)C(=O)N[C@@H](CO)C(=O)N[C@@H](CCC(N)=O)C(=O)N[C@@H](CCC(=O)O)C(=O)N[C@@H](CC(C)C)C(=O)N[C@@H](Cc1cnc[nH]1)C(=O)N[C@@H](CCC(=O)O)C(=O)N[C@@H](CC(C)C)C(=O)N[C@@H](CCC(N)=O)C(=O)N[C@H](C(=O)N[C@@H](Cc1ccc(O)cc1)C(=O)N1CCC[C@H]1C(=O)N[C@@H](CCCNC(=N)N)C(=O)N[C@H](C(=O)NCC(=O)N[C@H](C(=O)NCC(=O)N[C@@H](CO)C(=O)NCC(=O)N[C@H](C(=O)N[C@@H](Cc1ccc(O)cc1)C(N)=O)[C@@H](C)O)[C@@H](C)O)[C@@H](C)O)[C@@H](C)O ({C20 diacid-γGlu}-EASQLSTAVLGRLSQELHELQTYPRTGTGSGTY-NH2) |  | 
